Read-outs that look alike come from different tables or passages of the source.
Assay: Phase I trial of oral PCLX-001: plasma pharmacokinetics, noncompartmental analysis (Phoenix WinNonlin 8.3)
Type: in vivo, human
Details: for AUC(0-t): read-out: AUClast; for Tmax: read-out: Tmax
Text: The clinical trial is entitled “Phase I Trial of PCLX-001 in B-cell Non-Hodgkin Lymphoma and Advanced Solid Malignancies” and registered at clinicaltrials.gov as NCT04836195. It is a phase I dose-escalation study of oral PCLX-001, conducted in a multicenter, non-randomized, open-label, non-controlled design. The study is comprised of two parts: Part A (single-agent dose escalation) and Part B (single-agent expansion cohorts).
Patients are to receive daily oral PCLX-001 on 28-day cycles, beginning with a starting dose of 20 mg.
[…] After dosing, the blood samples (volumes 3 mL) were serially collected into heparinized tubes from a right forearm butterfly cannula. All blood fluid specimens were frozen and later assayed using a validated UHPLC-MS detection method.
Noncompartmental pharmacokinetic analysis was performed using Phoenix WinNonlin 8.3 using trapezoidal rule and linear up log down methodology. WinNonlin was allowed to pick optimal terminal phases.
Nonparametric superposition was performed using Phoenix WinNonlin Nonparametric Superposition to predict steady state data based upon Day 1 data for each patient. It utilized the 8- and 24-hour time points for estimation of terminal phase for the purposes of this exercise. We simulated 20 mg daily oral dosing and simulations were conducted out to steady state. Results are show in FIGS. 5, 6, and 7.
In the non-compartmental analysis, Phoenix WinNonlin 8.3 trapezoidal rule was used, with linear up log down method. This allowed WinNonlin to pick optimal terminal phase (WinNonlin will accept Rsq adjusted to >0.7). Additional analysis to assess adequate fie included visual inspection of data, and AUCextrap should be <15%.
Phoenix WinNonlin 8.3 trapezoidal rule. Used linear up log down method. Allowed WinNonlin to pick optimal terminal phase (WinNonlin will accept Rsq adjusted >0.7).
Other analysis to assess adequate fit. Visual inspection of data. AUCextrap should be <15%.

[1] = Table 1A, Patient 115-002-001 (Patient 1), Day 1, 20 mg oral daily
[2] = human, plasma, oral, 20 mg, Table 4, Mean, not on Pantoprazole, 20 mg, N 3, Day 1
[3] = human, plasma, oral, 20 mg, Table 4, Mean, not on Pantoprazole, 20 mg, N 3, Day 15
[4] = human, plasma, oral, 40 mg, Table 4, not on Pantoprazole, 40 mg, N 1, Day 1
[5] = human, plasma, oral, 40 mg, Table 4, not on Pantoprazole, 40 mg, N 1, Day 15
[6] = human, plasma, oral, 40 mg, Table 5, on Pantoprazole, 40 mg, N 1, Day 1
[7] = human, plasma, oral, 40 mg, Table 5, on Pantoprazole, 40 mg, N 1, Day 15
[8] = human, plasma, oral, 70 mg, Table 4, not on Pantoprazole, 70 mg, N 1, Day 1

Cc1c(NS(=O)(=O)c2c(Cl)cc(-c3ccnc(N4CCNCC4)c3)cc2Cl)c(CC(C)C)nn1C [PCLX-001, 2,6-dichloro-N-(3-isobutyl-1,5-dimethyl-1H-pyrazol-4-yl)-4-(2-(piperazin-1-yl)pyridin-4-yl)benzene sulfonamide]
systemic accumulation of drug (Patient 1, by day 15, 20 mg oral daily): without systemic accumulation of drug | drug accumulation (Patient 2, 20 mg oral daily): No significant drug accumulation | AUCextrep [1]: 15.9% | half-life [1]: 8.5 h | AUCextrep (Table 1A, Patient 115-002-001 (Patient 1), Day 15, 20 mg oral daily): 21.9% | AUCextrep (Table 1A, Patient 115-002-002 (Patient 2), Day 15, 20 mg oral daily): 20.4% | AUCextrep (Table 1A, Patient 115-002-004 (Patient 3), Day 1, 20 mg oral daily): 5.41% | AUCextrep (Table 1A, Patient 115-002-004 (Patient 3), Day 15, 20 mg oral daily): 11.3% | AUCextrap (Table 6, Patient 115-002-001, Day 1, 20 mg QD oral, Pantoprazole No): 15.3% | AUCextrap (Table 6, Patient 115-002-001, Day 15, 20 mg QD oral, Pantoprazole No): 23.7% | AUCextrap (Table 6, Patient 115-002-002, Day 15, 20 mg QD oral, Pantoprazole No): 17.5% | AUCextrap (Table 6, Patient 115-002-004, Day 1, 20 mg QD oral, Pantoprazole No): 5.1% | AUCextrap (Table 6, Patient 115-002-004, Day 15, 20 mg QD oral, Pantoprazole No): 10.0% | AUCextrap (Table 7, Patient 115-002-005, Day 1, 40 mg QD oral, Pantoprazole Yes): 9.5% | AUCextrap (Table 7, Patient 115-002-005, Day 15, 40 mg QD oral, Pantoprazole Yes): 5.3% | AUCextrap (Table 7, Patient 115-009-001, Day 1, 40 mg QD oral, Pantoprazole No): 20.1% | AUCextrap (Table 7, Patient 115-009-001, Day 15, 40 mg QD oral, Pantoprazole No): 24.9% | AUCextrap (Table 8, Patient 115-024-001, Day 1, 70 mg QD oral, Pantoprazole No): 16.8% | AUCextrap (Table 9, Patient 115-002-009, Day 1, 100 mg QD oral, Pantoprazole No): 4.4% | AUCextrap (Table 9, Patient 115-002-010, Day 1, 100 mg QD oral, Pantoprazole No): 10.9% | AUCextrap (Table 9, Patient 115-002-011, Day 1, 100 mg QD oral, Pantoprazole No): 18.4% | AUCextrap (Table 9, Patient 115-002-012, Day 15, 100 mg QD oral, Pantoprazole No): 12.2% | AUCextrap (Table 10, Patient 115-002-006, Day 1, Dose 140 mg QD oral, Concomitant Pantoprazole No): 5.48% | AUCextrap (Table 10, Patient 115-002-006, Day 15, Dose 140 mg QD oral, Concomitant Pantoprazole No): 22.7% | AUCextrap (Table 10, Patient 115-024-005, Day 1, Dose 140 mg QD oral, Concomitant Pantoprazole Yes): 12.1% | AUCextrap (Table 10, Patient 115-024-005, Day 15, Dose 140 mg QD oral, Concomitant Pantoprazole Yes): 37.9% | AUCextrap (Table 10, Patient 115-024-013, Day 1, Dose 140 mg QD oral, Concomitant Pantoprazole Yes): 12.5% | AUCextrap (Table 10, Patient 115-024-013, Day 15, Dose 140 mg QD oral, Concomitant Pantoprazole Yes): 39.9% | dose proportionality of systemic exposure (dose range of 20 to 140 mg): dose proportional | Cmax (human, plasma, oral, 20 mg, Table 3, human (patient 1), 20 mg/75 kg = 0.27 mg/kg): 0.479 µg/mL | half-life (human, plasma, oral, 20 mg, Table 3, human (patient 1), 20 mg/75 kg = 0.27 mg/kg, read-out: Terminal elimination half-life (converted)): 16 h | Cmax (human, plasma, oral, 20 mg, Table 4, Mean (CV), not on Pantoprazole, 20 mg, N 3, Day 1): 0.276 µg/mL | half-life (human, plasma, oral, 20 mg, Table 4, Mean (CV), not on Pantoprazole, 20 mg, N 3, Day 1, read-out: t½ (converted)): 6.93 h | Cmax (human, plasma, oral, 20 mg, Table 4, Mean (CV), not on Pantoprazole, 20 mg, N 3, Day 15): 0.359 µg/mL | half-life (human, plasma, oral, 20 mg, Table 4, Mean (CV), not on Pantoprazole, 20 mg, N 3, Day 15, read-out: t½ (converted)): 8.93 h | AUC(0-inf) [2]: 1.96 µg·h/mL | AUC(0-t) [2]: 1.6 µg·h/mL | AUC(0-inf) [3]: 2.72 µg·h/mL | AUC(0-t) [3]: 2.22 µg·h/mL | Tmax (human, plasma, oral, 20 mg, Table 4, median (min, max), not on Pantoprazole, 20 mg, N 3, Day 1): 2 h | Tmax (human, plasma, oral, 20 mg, Table 4, median (min, max), not on Pantoprazole, 20 mg, N 3, Day 15): 1 h | AUC(0-inf) [4]: 12.6 µg·h/mL | Cmax [4]: 1.67 µg/mL | AUC(0-t) [4]: 10.1 µg·h/mL | Tmax [4]: 1 h | half-life (human, plasma, oral, 40 mg, Table 4, not on Pantoprazole, 40 mg, N 1, Day 1, read-out: t½ (converted)): 10.8 h | AUC(0-inf) [5]: 18.3 µg·h/mL | Cmax [5]: 1.48 µg/mL | AUC(0-t) [5]: 13.7 µg·h/mL | Tmax [5]: 2 h | half-life (human, plasma, oral, 40 mg, Table 4, not on Pantoprazole, 40 mg, N 1, Day 15, read-out: t½ (converted)): 11.9 h | AUC(0-inf) [6]: 4.9 µg·h/mL | Cmax [6]: 0.868 µg/mL | AUC(0-t) [6]: 4.43 µg·h/mL | Tmax [6]: 0.5 h | half-life (human, plasma, oral, 40 mg, Table 5, on Pantoprazole, 40 mg, N 1, Day 1, read-out: t½ (converted)): 7.5 h | AUC(0-inf) [7]: 7.05 µg·h/mL | Cmax [7]: 0.802 µg/mL | AUC(0-t) [7]: 6.68 µg·h/mL | Tmax [7]: 2 h | half-life (human, plasma, oral, 40 mg, Table 5, on Pantoprazole, 40 mg, N 1, Day 15, read-out: t½ (converted)): 5.54 h | AUC(0-inf) [8]: 11.3 µg·h/mL | Cmax [8]: 1.43 µg/mL | AUC(0-t) [8]: 9.39 µg·h/mL | Tmax [8]: 1 h | half-life (human, plasma, oral, 70 mg, Table 4, not on Pantoprazole, 70 mg, N 1, Day 1, read-out: t½ (converted)): 9.44 h
